The text below walks through data of paper PMC3873925, “Peptide-Mediated Liposomal Doxorubicin Enhances Drug Delivery Efficiency and Therapeutic Efficacy in Animal Models” (PLoS ONE, 2013).

One data set concerns LL/2-derived tumors. As to the kind of experiment: Syngenic animal model. It is filed as in vivo, C57BL/6 mice. To be noted: five injections. How it is done: C57BL/6 mice (6-week-old, NLAC) were injected s.c. in the dorsolateral flank with 2×10^6 LL/2 cells in 100 µL serum-free media. […] The dosage of SP-5-2-LD was 1 or 2 mg/kg, injected twice a week for four weeks. Mouse body weight and tumor size were measured twice a week. Tumor volumes were calculated using the equation: length × (width)^2 ×0.52 and presented as standard error of the mean. This study used humane endpoint by determining the tumor size (>10% of body weight) or mouse weight loss (>20% of body weight). Mice were observed twice a week and given soft diet. Animal care was carried out in accordance with the guidelines of Academia Sinica, Taiwan.

The test system of a further data set is LL/2 cells. Briefly: Lung metastasis animal model. The class given is in vivo. Particulars: 2 mg/kg i.v. twice a week, eight injections (16 mg/kg total). How it is done:
LL/2 cells were washed twice by centrifugation in media without serum at room temperature, and re-suspended in media at 4°C prior to injection. Cell viability was determined by trypan blue exclusion, and only cell suspensions with greater than 95% viability and without cell clumping were used. Cells (1×10^5 cells/mouse) were inoculated via the lateral tail vein of 6-week-old female C57BL/6 mice. Mice were then treated with different formulations of anti-cancer drugs. The dosage was 1 or 2 mg/kg twice a week for four weeks. Mouse body weight and survival rate were measured twice a week. The endpoint was determined by the mouse weight loss (>20% of body weight) or mouse activity assessment (hunching, stationary, ruffling and poor grooming). Mice were observed every day and given soft diet. Animal care was carried out in accordance with the guidelines of Academia Sinica, Taiwan.

For data set [1], the system named is H460 cells. Briefly: Orthotopic lung adenocarcinoma model. To be noted: 1 mg/kg i.v. twice a week, eight injections, started five days after orthotopic injection. It is filed as in vivo, SCID mice. The protocol:
SCID mice (4-week-old) were anesthetized with isoflourane mixed with oxygen and placed in the right lateral decubitus position. The skin overlying the left chest wall in the mid-axillary line was treated with alcohol, and the underlying chest wall and intercostal spaces were visualized. H460 cells (5×10^5; single-cell suspensions of over 90% viability as determined by trypan blue exclusion) in 50 µL serum-free media plus Matrigel Matrix (BD Biosciences) (1∶1) were injected into the left lateral thorax, at the lateral dorsal axillary line. After tumor injection, the mice were turned to the left lateral decubitus position and observed for 45 to 60 minutes until fully recovered. Mice were then treated with different formulations of anti-cancer drugs. The dosage was 1 mg/kg twice a week for four weeks. Mouse body weight and survival rate were measured twice a week. The endpoint was determined by the mouse weight loss (>20% of body weight) or mouse activity assessment (hunching, stationary, ruffling and poor grooming). Mice were observed every day and given soft diet. Animal care was carried out in accordance with the guidelines of Academia Sinica, Taiwan.

Data set [2] in a line: Pharmacokinetic and biodistribution studies in H460 xenograft-bearing mice. To be noted: 2 mg/kg i.v. It is filed as in vivo, NOD/SCID mice. How it is done: Human cancer xenografts were established in NOD/SCID mice (NLAC). H460 cells (5×10^6) were injected subcutaneously (s.c.) into the dorsolateral flanks of 4-week-old mice. […] At selected time points, three mice in each group were anaesthetized and sacrificed with 50% CO2 containing 50% O2. Blood samples were collected through submaxillary punctures, and plasma samples were prepared. After perfusion, xenograft tumors and mouse organs were removed and homogenized. Tumor cell nuclei were isolated and nuclear doxorubicin was extracted as described previously, [32]. The total doxorubicin concentration was measured as described by Mayer et al.. Total doxorubicin was quantified using spectrofluorometry at λex 485/20 nm and λem 645/40 nm (Synergy HT Multi-Detection Microplate Reader, BioTek Instruments, Winooski, VT).
Tissue concentrations of doxorubicin were expressed as microequivalents per milliliter of plasma or per gram of tissue. A standard doxorubicin curve was prepared in control homogenates by following the above extraction procedure. Drug levels were estimated on the basis of doxorubicin fluorescent equivalents.

For data set [3], the system named is H460 cells. As to the kind of experiment: Peptide-binding assay (cellular ELISA). It is filed as cell-based, human. How it is done:
(§1) H460 cells were seeded in 96-well ELISA plates at 1×10^4 per well. After 24-hour incubation, cells were fixed with 3.7% paraformaldehyde for 10 min at 4°C and then blocked with 1% BSA in PBS for 1 hour at room temperature. Serial diluted biotinylated peptides were incubated with cells for 1 hour at room temperature. After twice washing with PBS, cells were incubated with HRP-conjugated streptavidin (1∶5000 dilution) for 1 hour and then washed with PBS supplemented with 0.1% tween-20 for four times. Binding activity was assessed by cellular ELISA with optical density at 490 nm. For competition assay, cells were firstly incubated with unlabeled peptides at room temperature for 1 hour before incubated with 10 µg/ml biotinylated SP5-2 peptides.
In general terms: In an ELISA, binding on a coated surface is turned into a signal by an enzyme label.

Data set [4] relates to H460 cells. As to the kind of experiment: Peptide competition assay (cellular ELISA). To be noted: B-SP5-2 10 µg/ml, unlabeled peptide 22 to 600 µg/ml. It is filed as cell-based, human. How it is done: as §1

Turning to `COc1cccc2c1C(=O)c1c(O)c3c(c(O)c1C2=O)C[C@@](O)(C(=O)CO)C[C@@H]3O[C@H]1C[C@H](N)[C@H](O)[C@H](C)O1` [FD, doxorubicin], in the data set with LL/2-derived tumors (1 mg/kg i.v. twice a week), the “tumor size, fold larger than in equivalent SP5-2-LD-treated mice” value is reported as 1.55 fold. Also, the “tumor size, fold larger than in equivalent SP5-2-LD-treated mice” value with LL/2-derived tumors (2 mg/kg i.v. twice a week) was 2.38 fold. Besides, the median overall survival with LL/2 cells is 21 days. Also, in the data set with H460 cells [1], the mean life spans was determined as 25 days. Besides, in data set [2], the “AUC0-72 h Blood” value came to 5.9 µg·h/g, the “AUC0-72 h Heart” value was determined as 26.3 µg·h/g, the “AUC0-72 h Kidney” value came to 87.2 µg·h/g and the “AUC0-72 h Liver” value came to 293.6 µg·h/g. In addition, in data set [2], the “AUC0-72 h Lung” value is reported as 421.2 µg·h/g. Further, the “AUC0-72 h Nuclei” value in data set [2] (doxorubicin bound to tumor cell nuclei) turned out to be 5.5 µg·h/g. Besides, in data set [2] (doxorubicin in tumor tissue), the “AUC0-72 h Tumor” value amounted to 8.5 µg·h/g.

With “TDSILRSYDGGG [MP5-2, mutant peptide, WTY motif changed to GGG]”, the binding activity entry in the data set with H460 cells [3] (H460 and LL/2 cells, WTY motif changed to GGG) is listed as “remarkable loss of binding activity”.

Turning to TDSILRSYDWTY [SP5-2], the “minimum binding activity started at” value in the data set on H460 cells [3] (H460 cells, biotinylated peptide) worked out at 1 µg/mL. In addition, the “inhibition of Biotin-labeled SP5-2 binding to H460 cells by unlabeled peptide” value in the data set on H460 cells [4] was “competitively inhibited”.
